ChEMBL document CHEMBL1201862, “PubChem BioAssay data set” (2004)
Where “and” joins values, the source holds several entries; their conditions need not be identical. Equal values may be shown once.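 These data come from cells grown in 96-well plates and exposed to compound for 48 hours at five concentrations. GI50 is the concentration that inhibits growth by half.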 Calls of active or inactive are those of the source. Cut-off read from the data, not from the text of the source: active = GI50 up to about 1.1 µM and inactive = higher.

Tests used:
Assay in all cases: growth of human tumour cells (NCI), 48 h
[1] = test system: SNB-19
[2] = test system: UACC-62
[3] = test system: COLO 205
[4] = test system: PC-3
[5] = test system: MDA-MB-231
[6] = test system: MOLT-4
[7] = test system: TK-10
[8] = test system: SK-MEL-28
[9] = test system: NCI-H522
[10] = test system: RPMI-8226
[11] = test system: K562
[12] = test system: HCT-15
[13] = test system: Malme-3M
[14] = test system: MDA-N
[15] = test system: KM12
[16] = test system: OVCAR-4
[17] = test system: CCRF-CEM
[18] = test system: EKVX
[19] = test system: LOX IMVI

Compound	GI50 [1]	GI50 [2]	GI50 [3]	GI50 [4]	GI50 [5]	GI50 [6]	GI50 [7]	GI50 [8]	GI50 [9]	GI50 [10]	GI50 [11]	GI50 [12]	GI50 [13]	GI50 [14]	GI50 [15]	GI50 [16]	GI50 [17]	GI50 [18]	GI50 [19]
COC(=O)c1ccc(COC(=O)N2C=CCC2C(=O)O)cc1 (centres undefined)	> 100 µM (inactive)	> 100 µM (inactive)	> 100 µM (inactive)	> 100 µM (inactive)	> 100 µM (inactive)	> 100 µM (inactive)	> 100 µM (inactive)	> 100 µM (inactive)	> 100 µM (inactive)	> 100 µM (inactive)	> 100 µM (inactive)	> 100 µM	> 100 µM (inactive)	> 100 µM (inactive)	> 100 µM (inactive)	–	–	–	–
CC(C)(C)OC(=O)N1CCc2[nH][nH]c(=O)c2C1	> 100 µM (inactive)	> 100 µM (inactive)	> 100 µM (inactive)	> 100 µM (inactive)	> 100 µM (inactive)	> 100 µM (inactive)	> 100 µM (inactive)	> 100 µM (inactive)	> 100 µM (inactive)	> 100 µM (inactive)	> 100 µM (inactive)	> 100 µM	> 100 µM (inactive)	> 100 µM (inactive)	> 100 µM (inactive)	> 100 µM (inactive)	> 100 µM (inactive)	> 100 µM (inactive)	–
COC(=O)[C@@H]1N2C(=S)N(c3ccccc3)C(=O)[C@H]2SC1(C)C	> 100 µM (inactive)	> 100 µM (inactive)	> 100 µM (inactive)	> 100 µM (inactive)	> 100 µM (inactive)	> 100 µM (inactive)	> 100 µM (inactive)	> 100 µM (inactive)	> 100 µM (inactive)	> 100 µM (inactive)	–	> 100 µM	–	> 100 µM (inactive)	> 100 µM (inactive)	> 100 µM (inactive)	–	> 100 µM (inactive)	–
COC(=O)C(Cc1ccc2c(c1)CCC2)Cc1ccc2c(c1)CCC2	> 100 µM (inactive)	> 100 µM (inactive)	92.7 µM (inactive)	73.3 µM (inactive)	> 100 µM (inactive)	40.3 µM (inactive)	> 100 µM (inactive)	94.4 µM (inactive)	32.9 µM (inactive)	26.1 µM (inactive)	43.1 µM (inactive)	89.7 µM	–	59.3 µM (inactive)	37.3 µM (inactive)	> 100 µM (inactive)	32.4 µM (inactive)	44.8 µM (inactive)	20.8 µM (inactive)
COC(=O)[C@]1(C)CC[C@]2(C)CC[C@]3(C)C4[C@H]5Oc6c(cc7c(c6C)CCC6[C@@]7(C)CC[C@@]7(C)C8[C@](C)(CCC[C@@]8(C)C(=O)OC)CC[C@]67C)O[C@H]5c5c(cc6c(c5C)O[C@@]5(C)C7=CC=C8[C@@](C)(CC[C@@]9(C)[C@@H]%10C[C@](C)(C(=O)OC)CC[C@]%10(C)CC[C@]89C)C7=CC(=O)[C@@]5(O)O6)[C@]4(C)CC[C@@]3(C)C2C1 (some centres undefined)	5.05 µM (inactive)	2.32 µM (inactive)	6.35 µM (inactive)	4.15 µM (inactive)	3.11 µM (inactive)	1.39 µM (inactive)	2.6 µM (inactive)	7.53 µM (inactive)	2.49 µM (inactive)	–	3.46 µM (inactive)	3.45 µM	4.86 µM (inactive)	1.93 µM (inactive)	> 12.5 µM (inactive)	7.59 µM (inactive)	1.19 µM (inactive)	3.42 µM (inactive)	2.27 µM (inactive)
COC1OC(C(=O)CP(=O)(OC)OC)C(OCc2ccccc2)C(OCc2ccccc2)C1OCc1ccccc1 (centres undefined)	15.9 µM (inactive) and 16.3 µM (inactive)	13.7 µM (inactive) and 14.8 µM (inactive)	18.5 µM (inactive) and 18.2 µM (inactive)	15.4 µM (inactive) and 14.2 µM (inactive)	15.9 µM (inactive) and 16.7 µM (inactive)	13 µM (inactive) and 20.8 µM (inactive)	17.1 µM (inactive) and 18.8 µM (inactive)	16.9 µM (inactive) and 21 µM (inactive)	14.5 µM (inactive) and 16 µM (inactive)	–	31 µM (inactive) and 17.9 µM (inactive)	15.5 µM and 17.7 µM	17.9 µM (inactive) and 19.2 µM (inactive)	16.3 µM (inactive) and 17.1 µM (inactive)	18.7 µM (inactive) and 18.9 µM (inactive)	14.7 µM (inactive) and 20.7 µM (inactive)	33.1 µM (inactive) and 25.1 µM (inactive)	15 µM (inactive) and 16.9 µM (inactive)	17.7 µM (inactive) and 17.2 µM (inactive)
Oc1c(C2=NNC(c3cccs3)C2)ccc2ccccc12 (centres undefined)	–	15.6 µM (inactive)	19.5 µM (inactive)	27 µM (inactive)	26.1 µM (inactive)	10.1 µM (inactive)	28.1 µM (inactive)	36 µM (inactive)	21.9 µM (inactive)	17.7 µM (inactive)	17.9 µM (inactive)	18.2 µM	18.8 µM (inactive)	16.5 µM (inactive)	12 µM (inactive)	29.4 µM (inactive)	11.1 µM (inactive)	–	–
Cc1cn(C2CC(COCc3ccccc3)N(CCO[Si](C)(C)C(C)(C)C)O2)c(=O)[nH]c1=O (centres undefined)	13.6 µM (inactive)	11.9 µM (inactive)	15.1 µM (inactive)	5.28 µM (inactive)	18.7 µM (inactive)	5.93 µM (inactive)	14.3 µM (inactive)	16.8 µM (inactive)	16.2 µM (inactive)	15.1 µM (inactive)	4.71 µM (inactive)	–	18.2 µM (inactive)	14.6 µM (inactive)	17.3 µM (inactive)	17.9 µM (inactive)	–	–	–
COc1ccc(N2C(=O)C3c4[nH]c5cccc(Cl)c5c4C4CCC(C(C)(C)C)CC4C3C2=O)cc1 (centres undefined)	41.5 µM (inactive)	> 100 µM (inactive)	> 100 µM (inactive)	> 100 µM (inactive)	> 100 µM (inactive)	> 100 µM (inactive)	> 100 µM (inactive)	> 100 µM (inactive)	> 100 µM (inactive)	> 100 µM (inactive)	> 100 µM (inactive)	> 100 µM	> 100 µM (inactive)	> 100 µM (inactive)	> 100 µM (inactive)	> 100 µM (inactive)	–	> 100 µM (inactive)	> 100 µM (inactive)
CCOC(=O)c1cc2c([nH]1)c(OC(C)=O)cc1c2ccn1Cc1ccccc1	> 100 µM (inactive)	> 100 µM (inactive)	> 100 µM (inactive)	> 100 µM (inactive)	> 100 µM (inactive)	> 100 µM (inactive)	–	> 100 µM (inactive)	–	> 100 µM (inactive)	> 100 µM (inactive)	> 100 µM	> 100 µM (inactive)	> 100 µM (inactive)	> 100 µM (inactive)	> 100 µM (inactive)	> 100 µM (inactive)	99.5 µM (inactive)	> 100 µM (inactive)
N#CCCN(CCN(CCN(C(=O)Nc1ccccc1)c1ccccc1)C(=O)Nc1ccccc1)C(=O)Nc1ccccc1	> 100 µM (inactive)	> 100 µM (inactive)	> 100 µM (inactive)	6.85 µM (inactive)	> 100 µM (inactive)	4.43 µM (inactive)	> 100 µM (inactive)	> 100 µM (inactive)	–	6.47 µM (inactive)	–	> 100 µM	–	> 100 µM (inactive)	2.57 µM (inactive)	> 100 µM (inactive)	1.89 µM (inactive)	54.2 µM (inactive)	> 100 µM (inactive)
